19 compounds from patent US11434242B2, “Dopamine-b-hydroxylase inhibitors” (BIAL-PORTELA & Cª, S.A., priority 2017, dated 2022) can be followed below.

Marks after values point to notes of the source that are not given here.

The target in this experiment is T1, Dopamine beta hydroxylase (Homo sapiens, UniProt P09172).
T1 construct: 125 μl of plasma; tissue Instituto Português do Sangue Transplantação; host or cells: human plasma from healthy donors
T1 sequence (P09172 40-617 limits assumed): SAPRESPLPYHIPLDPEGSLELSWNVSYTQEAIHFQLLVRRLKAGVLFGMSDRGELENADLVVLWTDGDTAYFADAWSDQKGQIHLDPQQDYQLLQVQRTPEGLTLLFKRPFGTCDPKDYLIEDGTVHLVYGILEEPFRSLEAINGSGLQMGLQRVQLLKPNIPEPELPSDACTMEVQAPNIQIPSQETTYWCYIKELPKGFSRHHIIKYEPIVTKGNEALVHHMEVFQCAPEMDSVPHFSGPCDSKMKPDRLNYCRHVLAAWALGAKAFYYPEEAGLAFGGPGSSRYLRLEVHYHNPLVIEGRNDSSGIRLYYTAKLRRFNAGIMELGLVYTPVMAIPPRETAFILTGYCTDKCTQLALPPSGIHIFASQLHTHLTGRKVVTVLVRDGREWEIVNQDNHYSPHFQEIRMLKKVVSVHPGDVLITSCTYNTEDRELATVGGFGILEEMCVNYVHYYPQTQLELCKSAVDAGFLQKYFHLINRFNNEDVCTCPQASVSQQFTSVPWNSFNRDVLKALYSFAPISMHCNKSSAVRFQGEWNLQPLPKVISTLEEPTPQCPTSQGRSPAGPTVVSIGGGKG
Kind of experiment: Dopamine beta hydroxylase activity in human plasma. The class given is biochemical. The conditions noted are these: for Plasma (0.1 μM), activity in % of control / Plasma (0.1 μM), activity in % of control, re-test (asterisked): inhibitor 0.1 μM; for Plasma (1 μM), activity in % of control: inhibitor 1 μM; for Plasma (0.01 μM), activity in % of control / Plasma (0.01 μM), activity in % of control, re-test (asterisked): inhibitor 0.01 μM; for Plasma (0.01 μM), activity in % of control, re-test (asterisked) / Plasma (0.1 μM), activity in % of control, re-test (asterisked): re-tested under the same experimental conditions, asterisked data believed to be correct. Summed up: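 Healthy-donor human plasma pre-incubated 10 min at 37° C with compound at final 10, 100 or 1000 nM in pH 5.0 acetate buffer with ascorbate, fumarate, pargyline, N-ethylmaleimide, catalase and copper sulfate. Tyramine substrate then added for 45 min; octopamine formed was isolated by SCX cartridge, periodate-converted and read at 330 nm; activity given as % control.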

Take `O=C(Cc1[nH]c(=S)n2c1C[C@@H](c1c(F)ccc(Br)c1F)C2)NCC1CC1` [Example 95, (S)-2-(6-(3-bromo-2,6-difluorophenyl)-3-thioxo-2,5,6,7-tetrahydro-3H-pyrrolo[1,2-c]imidazol-1-yl)-N-(cyclopropylmethyl)acetamide]: the “Plasma (0.1 μM), activity in % of control” value is 24.0 % of control and the “Plasma (1 μM), activity in % of control” value was 0 % of control.
Regarding `Cn1c(CC(=O)NCC2CCOCC2)c2n(c1=S)C[C@H](c1c(F)ccc(Cl)c1F)C2` [Example 352, (S)-2-(6-(3-chloro-2,6-difluorophenyl)-2-methyl-3-thioxo-2,5,6,7-tetrahydro-3H-pyrrolo[1,2-c]imidazol-1-yl)-N-((tetrahydro-2H-pyran-4-yl)methyl)acetamide], the “Plasma (0.01 μM), activity in % of control” value is on record as 40.8 % of control and the “Plasma (0.1 μM), activity in % of control” value is 10.9 % of control.
Consider `CN(C)C(=O)C1CCN(C(=O)Cc2c3n(c(=S)n2C)C[C@@H](c2c(F)ccc(F)c2F)C3)C1` (stereo partly drawn) [Example 358, N,N-dimethyl-1-(2-((R)-2-methyl-3-thioxo-6-(2,3,6-trifluorophenyl)-2,5,6,7-tetrahydro-3H-pyrrolo[1,2-c]imidazol-1-yl)acetyl)pyrrolidine-3-carboxamide], for which the “Plasma (0.01 μM), activity in % of control” value is given as 90.1 % of control and the “Plasma (0.1 μM), activity in % of control” value is listed as 24.9 % of control.
Turning to `CCOC(=O)Cc1[nH]c(=S)n2c1C[C@@H](c1c(F)ccc(Br)c1F)C2` [Example 59, ethyl (S)-2-(6-(3-bromo-2,6-difluorophenyl)-3-thioxo-2,5,6,7-tetrahydro-3H-pyrrolo[1,2-c]imidazol-1-yl)acetate], the “Plasma (0.1 μM), activity in % of control” value is 20.8 % of control and the “Plasma (1 μM), activity in % of control” value is 4.1 % of control.
With `Fc1ccc(F)c([C@H]2Cc3c(CCCN4CCCC4)[nH]c(=S)n3C2)c1F` [Example 478, (R)-1-(3-(pyrrolidin-1-yl)propyl)-6-(2,3,6-trifluorophenyl)-2,5,6,7-tetrahydro-3H-pyrrolo[1,2-c]imidazole-3-thione hydrofluoride], the “Plasma (0.01 μM), activity in % of control” value is reported as 46.7 % of control and the “Plasma (0.1 μM), activity in % of control” value was 5.1 % of control.
For `CN(C(=O)Cc1c2n(c(=S)n1C)C[C@H](c1c(F)ccc(Cl)c1F)C2)C1CCOCC1` [Example 373, (S)-2-(6-(3-chloro-2,6-difluorophenyl)-2-methyl-3-thioxo-2,5,6,7-tetrahydro-3H-pyrrolo[1,2-c]imidazol-1-yl)-N-methyl-N-(tetrahydro-2H-pyran-4-yl)acetamide], the “Plasma (0.01 μM), activity in % of control” value is recorded as 66.1 % of control and the “Plasma (0.1 μM), activity in % of control” value is 12.8 % of control.
As for `CN(C(=O)Cc1c2n(c(=S)n1C)C[C@H](c1c(F)ccc(Cl)c1F)C2)[C@@H]1CCOC1` [Example 399, 2-((S)-6-(3-chloro-2,6-difluorophenyl)-2-methyl-3-thioxo-2,5,6,7-tetrahydro-3H-pyrrolo[1,2-c]imidazol-1-yl)-N-methyl-N—((R)-tetrahydrofuran-3-yl)acetamide], the “Plasma (0.01 μM), activity in % of control” value is listed as 40.6 % of control and the “Plasma (0.1 μM), activity in % of control” value was 4.0 % of control.
With `COCCNC(=O)Cc1[nH]c(=S)n2c1C[C@H](c1c(F)c(F)cc(F)c1F)C2` [Example 73, (R)—N-(2-methoxyethyl)-2-(6-(2,3,5,6-tetrafluorophenyl)-3-thioxo-2,5,6,7-tetrahydro-3H-pyrrolo[1,2-c]imidazol-1-yl)acetamide], the “Plasma (0.1 μM), activity in % of control” value was 75.9 % of control and the “Plasma (1 μM), activity in % of control” value is reported as 19.1 % of control.
As for `CN(C(=O)Cc1c2n(c(=S)n1C)C[C@H](c1c(F)ccc(Br)c1F)C2)C1COC1` [Example 454, (S)-2-(6-(3-bromo-2,6-difluorophenyl)-2-methyl-3-thioxo-2,5,6,7-tetrahydro-3H-pyrrolo[1,2-c]imidazol-1-yl)-N-methyl-N-(oxetan-3-yl)acetamide], the “Plasma (0.01 μM), activity in % of control” value was 56.8 % of control and the “Plasma (0.1 μM), activity in % of control” value is on record as 8.1 % of control.
For `Cn1c(CC(=O)N[C@H]2CCOC2)c2n(c1=S)C[C@@]1(c3c(F)ccc(Cl)c3F)C[C@@H]21` [Example 418, 2-((5aS,6aR)-5a-(3-chloro-2,6-difluorophenyl)-2-methyl-3-thioxo-2,3,5,5a,6,6a-hexahydrocyclopropa[3,4]pyrrolo[1,2-c]imidazol-1-yl)-N—((S)-tetrahydrofuran-3-yl)acetamide], the “Plasma (0.01 μM), activity in % of control” value is on record as 27.7 % of control and the “Plasma (0.1 μM), activity in % of control” value is on record as 3.0 % of control.
The like results for `Cn1c(CC(=O)N2CCNC(=O)C2)c2n(c1=S)C[C@@H](c1c(F)c(F)cc(F)c1F)C2` [Example 323, (R)-4-(2-(2-methyl-6-(2,3,5,6-tetrafluorophenyl)-3-thioxo-2,5,6,7-tetrahydro-3H-pyrrolo[1,2-c]imidazol-1-yl)acetyl)piperazin-2-one] were, in that order, 86.3 % of control and 43.3 % of control.
For the compound `Cn1c(CC(=O)Nc2ccccn2)c2n(c1=S)C[C@H](c1c(F)ccc(Cl)c1F)C2` [Example 258, (S)-2-(6-(3-chloro-2,6-difluorophenyl)-2-methyl-3-thioxo-3,5,6,7-tetrahydro-2H-pyrrolo[1,2-c]imidazol-1-yl)-N-(pyridin-2-yl)acetamide], the “Plasma (0.01 μM), activity in % of control” value is 84.2 % of control and the “Plasma (0.1 μM), activity in % of control” value is listed as 21.3 % of control.
For `CN(C(=O)Cc1c2n(c(=S)n1C)C[C@H](c1c(F)ccc(Br)c1F)C2)C1CCOC1` (stereo partly drawn) [Example 252, 2-((S)-6-(3-bromo-2,6-difluorophenyl)-2-methyl-3-thioxo-2,5,6,7-tetrahydro-3H-pyrrolo[1,2-c]imidazol-1-yl)-N-methyl-N-(tetrahydrofuran-3-yl)acetamide], the “Plasma (0.01 μM), activity in % of control” value is recorded as 82.2 % of control; the “Plasma (0.01 μM), activity in % of control, re-test (asterisked)” value was 46.0* % of control; the “Plasma (0.1 μM), activity in % of control” value is recorded as 54.8 % of control; the “Plasma (0.1 μM), activity in % of control, re-test (asterisked)” value is 6.7* % of control.
On to `Cn1c(CC(=O)O)c2n(c1=S)C[C@H](c1c(F)ccc(Cl)c1F)C2` [Example 424, (S)-2-(6-(3-chloro-2,6-difluorophenyl)-2-methyl-3-thioxo-2,5,6,7-tetrahydro-3H-pyrrolo[1,2-c]imidazol-1-yl)acetic acid], for which the “Plasma (0.01 μM), activity in % of control” value was 59.5 % of control and the “Plasma (0.1 μM), activity in % of control” value was 20.6 % of control.
With `COCCNC(=O)Cc1[nH]c(=S)n2c1C[C@@H](c1c(F)ccc(Br)c1F)C2` [Example 103, (S)-2-(6-(3-bromo-2,6-difluorophenyl)-3-thioxo-2,5,6,7-tetrahydro-3H-pyrrolo[1,2-c]imidazol-1-yl)-N-(2-methoxyethyl)acetamide], the “Plasma (0.1 μM), activity in % of control” value is reported as 21.6 % of control and the “Plasma (1 μM), activity in % of control” value was 1.8 % of control.
On to `O=C(Cc1[nH]c(=S)n2c1[C@@H]1C[C@]1(c1cc(Br)ccc1F)C2)N1CCOCC1` [Example 157], for which the “Plasma (0.01 μM), activity in % of control” value is 84.2 % of control and the “Plasma (0.1 μM), activity in % of control” value is given as 24.2 % of control.
With `Cn1c(CC(=O)N2CCC[C@@H]2C(F)(F)F)c2n(c1=S)C[C@@H](c1c(F)ccc(F)c1F)C2` [Example 344, 2-((R)-2-methyl-3-thioxo-6-(2,3,6-trifluorophenyl)-2,5,6,7-tetrahydro-3H-pyrrolo[1,2-c]imidazol-1-yl)-1-((R)-2-(trifluoromethyl)pyrrolidin-1-yl)ethan-1-one], the “Plasma (0.01 μM), activity in % of control” value is 88.2 % of control and the “Plasma (0.1 μM), activity in % of control” value is reported as 73.7 % of control.
Consider `O=C(NCc1[nH]c(=S)n2c1C[C@@H](c1c(F)ccc(Cl)c1F)C2)C1CCOCC1` [Example 222, (S)—N-((6-(3-chloro-2,6-difluorophenyl)-3-thioxo-2,5,6,7-tetrahydro-3H-pyrrolo[1,2-c]imidazol-1-yl)methyl)tetrahydro-2H-pyran-4-carboxamide], for which the “Plasma (0.01 μM), activity in % of control” value is given as 73.6 % of control and the “Plasma (0.1 μM), activity in % of control” value is listed as 12.9 % of control.
`Cn1c(CC(=O)N[C@@H]2CCOC2)c2n(c1=S)C[C@@H](c1c(F)c(F)cc(F)c1F)C2` [Example 243]: the “Plasma (0.01 μM), activity in % of control” value was 38.0 % of control; the “Plasma (0.01 μM), activity in % of control, re-test (asterisked)” value is reported as 87.3* % of control; the “Plasma (0.1 μM), activity in % of control” value is recorded as 4.4 % of control; the “Plasma (0.1 μM), activity in % of control, re-test (asterisked)” value is on record as 37.6* % of control.
